Test results reported in US9260440B2, “Fused tetra or penta-cyclic dihydrodiazepinocarbazolones as PARP inhibitors” (BeiGene, Ltd., priority 2011, dated 2016).

Test system: PARP PARylation in HeLa cells
Assay: PARylation assay in HeLa cells
Type: cell-based
Settings: Homo sapiens, H2O2 200 μM induced DNA damage

Row | Compound | EC50
1 | O=C1NN=C2CC(c3ccccc3)Cc3[nH]c4cccc1c4c32 (stereo not drawn) [Compound 5, 2-phenyl-2,3,5,10-tetrahydro-[1,2]diazepino[3,4,5,6-def]carbazol-6(1H)-one] | 10.1 nM
2 | CN(C)c1ccc(C2CC3=NNC(=O)c4cc(F)cc5[nH]c(c3c45)C2)cc1 (stereo not drawn) [Compound 12, 2-(4-(dimethylamino)phenyl)-8-fluoro-2,3,5,10-tetrahydro-[1,2]diazepino[3,4,5,6-def]carbazol-6(1H)-one] | 26.6 nM
3 | N[C@@H](Cc1ccccc1)C(=O)N1CC2=NNC(=O)c3cccc4[nH]c(c2c34)C1 [Compound 64, (S)-2-(2-amino-3-phenylpropanoyl)-2,3,4,9-tetrahydro-2,4,9,10-tetraazacyclohepta[def]fluoren-8(1H)-one] | 48 nM
